Literature values in patent US20110071125A1, “SUBSTITUTED PHENYLAMINO-BENZENE DERIVATIVES USEFUL FOR TREATING HYPER-PROLIFERATIVE DISORDERS AND DISEASES ASSOCIATED WITH MITOGEN EXTRACELLULAR KINASE ACTIVITY” (priority 2007, published 2011).

System: colon cancer
Conditions: oral treatment, mouse models, ref. [18]

O=C(NOCC1CC1)c1ccc(F)c(F)c1Nc1ccc(I)cc1Cl [PD184352]
colon cancer growth in vivo: inhibit colon cancer growth in vivo
